Results published in patent publication US20130064812A1, “COMBINATION THERAPIES FOR HEMATOLOGIC MALIGNANCIES” (Gilead Calistoga LLC, priority 2011, published 2013).

System: T-ALL and B-ALL leukemic cell lines
Assay: ALL cell lines: AlamarBlue viability and Akt phosphorylation
Type: cell-based
Details: for cellular viability in ALL cell lines: 48 hours
Description: Viability assays of cell lines were performed using the AlamarBlue assay (Invitrogen). Cells (1×10^6 per well) in a volume of 100 μL were placed in a 96-well flat-bottom plate and the compound of formula I (100 μL per well at 2× final concentration) or medium alone was added to the plates. All were performed in quadruplicate. Cells were incubated for fixed times (48 hours). After the incubation, 10 μL AlamarBlue® was added to each well. Cells were incubated for 4 hours and the optical density at 530-560 nm was obtained using a SpectraMax® M5 plate reader 2001. Cell viability was expressed as a percentage of absorption between treated cells/control sample.

CC[C@H](Nc1ncnc2[nH]cnc12)c1nc2cccc(F)c2c(=O)n1-c1ccccc1 [Compound I, 5-fluoro-3-phenyl-2-[1-(9H-purin-6-ylamino)-propyl]-3H-quinazolin-4-one]
Akt phosphorylation in ALL cell lines: reduction in Akt phosphorylation
cellular viability in ALL cell lines: significant reduction in cell viability in all six cell lines
cellular viability in ALL cell lines (listed as compound I): substantial reduction in cellular viability
